Assay results reported in patent publication US20230416248A1, “COMPOUNDS AND USES THEREOF” (Foghorn Therapeutics Inc., priority 2020, published 2023).
Where two headings read alike, the source gives them in different places.

Experiments:
BRM = target: T1, BRM (Homo sapiens, UniProt P51531); test: ATPase catalytic activity of BRM, ADP-Glo in vitro biochemical assay; details: for IC50: 30 nM BRM, 400 μM ATP; for Ratio* (BRG1 IC50 (μM) divided by BRM IC50 (μM)): selectivity ratio BRG1 IC50 / BRM IC50
T1 construct: made in house; host or cells: High Five insect cells
How it was run: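 Recombinant BRM (30 nM) hydrolysed 400 μM ATP with 20 nM salmon sperm DNA in pH 8 Tris buffer containing 20 mM MgCl2, 50 mM NaCl, 0.1% Tween-20 and 1 mM DTT, 1 h at room temperature. ADP formed was quantified by ADP-Glo luminescence.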

BRG-1 = target: T2, BRG-1 (Homo sapiens, UniProt P51532); test: ATPase catalytic activity of BRG-1, ADP-Glo in vitro biochemical assay; details: 30 nM BRG-1, 400 μM ATP, read-out: BRG1 IC50
T2 construct: made in house; host or cells: High Five insect cells
How it was run: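 Signal reflects ADP produced by the enzyme, quantified as luminescence after unused ATP is cleared and ADP is reconverted to ATP for the luciferase reaction; both steps run at room temperature, 40 and 60 min respectively.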

[1] = ATPase catalytic activity, ADP-Glo

T1 sequence (P51531 whole entry): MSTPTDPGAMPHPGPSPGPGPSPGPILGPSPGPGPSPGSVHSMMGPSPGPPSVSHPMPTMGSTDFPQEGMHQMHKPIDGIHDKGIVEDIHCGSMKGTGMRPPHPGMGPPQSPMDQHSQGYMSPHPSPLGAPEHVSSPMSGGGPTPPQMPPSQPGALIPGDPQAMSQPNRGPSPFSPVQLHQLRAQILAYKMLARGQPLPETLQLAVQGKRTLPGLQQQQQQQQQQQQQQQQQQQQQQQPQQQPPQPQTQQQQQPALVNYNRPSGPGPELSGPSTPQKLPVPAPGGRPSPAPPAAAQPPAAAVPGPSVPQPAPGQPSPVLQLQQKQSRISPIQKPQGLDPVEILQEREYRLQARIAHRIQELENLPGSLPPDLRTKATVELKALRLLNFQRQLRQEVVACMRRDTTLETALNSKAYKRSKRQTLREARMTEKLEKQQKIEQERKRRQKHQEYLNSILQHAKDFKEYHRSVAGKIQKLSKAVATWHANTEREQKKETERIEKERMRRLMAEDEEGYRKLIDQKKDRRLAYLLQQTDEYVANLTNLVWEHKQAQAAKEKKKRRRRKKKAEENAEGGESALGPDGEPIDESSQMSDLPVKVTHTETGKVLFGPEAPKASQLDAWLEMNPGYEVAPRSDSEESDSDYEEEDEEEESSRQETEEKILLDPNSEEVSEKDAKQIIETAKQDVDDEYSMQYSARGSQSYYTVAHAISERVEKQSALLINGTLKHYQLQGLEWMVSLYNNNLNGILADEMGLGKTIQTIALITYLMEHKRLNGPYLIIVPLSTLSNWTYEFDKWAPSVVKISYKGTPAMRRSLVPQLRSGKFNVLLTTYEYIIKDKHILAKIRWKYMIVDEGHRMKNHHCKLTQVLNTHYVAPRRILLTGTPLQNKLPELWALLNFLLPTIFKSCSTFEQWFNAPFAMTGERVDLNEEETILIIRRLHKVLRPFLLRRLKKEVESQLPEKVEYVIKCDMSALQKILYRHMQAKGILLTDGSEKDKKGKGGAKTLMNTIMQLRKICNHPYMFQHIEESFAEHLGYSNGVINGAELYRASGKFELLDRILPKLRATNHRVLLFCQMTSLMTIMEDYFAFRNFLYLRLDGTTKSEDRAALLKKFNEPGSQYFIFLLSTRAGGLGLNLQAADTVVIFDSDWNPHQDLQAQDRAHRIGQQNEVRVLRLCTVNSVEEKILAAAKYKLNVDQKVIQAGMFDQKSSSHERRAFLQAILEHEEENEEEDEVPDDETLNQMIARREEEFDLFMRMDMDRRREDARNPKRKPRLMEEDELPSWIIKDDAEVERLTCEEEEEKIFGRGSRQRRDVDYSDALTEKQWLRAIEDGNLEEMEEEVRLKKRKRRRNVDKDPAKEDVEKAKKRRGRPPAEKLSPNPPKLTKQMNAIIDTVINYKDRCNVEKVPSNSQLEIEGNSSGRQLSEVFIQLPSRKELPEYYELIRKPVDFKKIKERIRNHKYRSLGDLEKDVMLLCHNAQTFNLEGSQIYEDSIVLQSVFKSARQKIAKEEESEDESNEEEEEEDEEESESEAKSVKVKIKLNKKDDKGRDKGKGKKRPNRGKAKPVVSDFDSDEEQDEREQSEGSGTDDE
T2 sequence (P51532 whole entry): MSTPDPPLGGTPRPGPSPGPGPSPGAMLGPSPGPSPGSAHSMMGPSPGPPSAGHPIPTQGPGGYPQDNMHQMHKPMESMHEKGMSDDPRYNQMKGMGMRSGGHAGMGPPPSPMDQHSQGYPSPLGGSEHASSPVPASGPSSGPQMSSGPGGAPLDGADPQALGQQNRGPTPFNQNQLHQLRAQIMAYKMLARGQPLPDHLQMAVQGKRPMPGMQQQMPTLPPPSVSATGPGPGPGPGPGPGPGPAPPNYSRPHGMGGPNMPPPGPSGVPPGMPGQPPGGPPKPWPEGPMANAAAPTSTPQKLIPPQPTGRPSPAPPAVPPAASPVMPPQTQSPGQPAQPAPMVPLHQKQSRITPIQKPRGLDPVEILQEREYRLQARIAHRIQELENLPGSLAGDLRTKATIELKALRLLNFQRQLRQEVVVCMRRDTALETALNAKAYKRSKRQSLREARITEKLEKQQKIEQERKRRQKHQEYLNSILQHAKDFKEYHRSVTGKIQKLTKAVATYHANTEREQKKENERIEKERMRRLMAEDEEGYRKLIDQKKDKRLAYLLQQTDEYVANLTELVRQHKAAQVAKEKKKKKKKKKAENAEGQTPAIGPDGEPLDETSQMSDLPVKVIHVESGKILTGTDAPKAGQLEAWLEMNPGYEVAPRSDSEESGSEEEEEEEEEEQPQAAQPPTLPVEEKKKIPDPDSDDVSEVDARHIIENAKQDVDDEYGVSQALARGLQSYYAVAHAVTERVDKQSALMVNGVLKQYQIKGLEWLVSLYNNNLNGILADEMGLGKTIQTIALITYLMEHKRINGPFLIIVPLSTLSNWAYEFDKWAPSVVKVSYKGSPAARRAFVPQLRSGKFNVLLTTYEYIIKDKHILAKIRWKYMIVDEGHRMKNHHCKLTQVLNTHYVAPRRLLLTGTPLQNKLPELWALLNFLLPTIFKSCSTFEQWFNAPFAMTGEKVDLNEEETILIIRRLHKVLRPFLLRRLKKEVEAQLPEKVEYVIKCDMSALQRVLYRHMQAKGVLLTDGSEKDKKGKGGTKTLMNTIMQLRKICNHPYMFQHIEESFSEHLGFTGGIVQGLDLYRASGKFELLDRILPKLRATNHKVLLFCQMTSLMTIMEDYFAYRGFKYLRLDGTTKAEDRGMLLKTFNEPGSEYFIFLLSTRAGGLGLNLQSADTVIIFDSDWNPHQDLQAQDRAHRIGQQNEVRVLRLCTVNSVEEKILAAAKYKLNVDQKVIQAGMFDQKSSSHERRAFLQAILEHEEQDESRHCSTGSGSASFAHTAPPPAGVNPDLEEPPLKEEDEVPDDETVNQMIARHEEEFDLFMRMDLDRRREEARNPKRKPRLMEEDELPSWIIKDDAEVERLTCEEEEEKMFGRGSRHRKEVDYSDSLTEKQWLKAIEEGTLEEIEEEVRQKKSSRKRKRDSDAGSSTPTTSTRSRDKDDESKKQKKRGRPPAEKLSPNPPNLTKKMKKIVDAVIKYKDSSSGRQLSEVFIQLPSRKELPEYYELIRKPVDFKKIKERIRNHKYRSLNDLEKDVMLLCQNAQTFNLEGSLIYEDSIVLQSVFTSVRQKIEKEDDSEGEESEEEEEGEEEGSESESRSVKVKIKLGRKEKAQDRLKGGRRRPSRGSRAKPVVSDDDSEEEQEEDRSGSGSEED

Row | Structure (SMILES) | IC50 (BRM; [1]) [nM] | Ratio* (BRM; ratio of BRG1 IC50 to BRM IC50) | IC50 (BRG-1; [1]) [nM] | IC50 (BRM; ADP-Glo ATPase assay) [nM] | Ratio* (BRM; ratio BRG1 IC50 / BRM IC50) | IC50 (BRG-1; ADP-Glo ATPase assay) [nM] | Ratio* (BRG1 IC50 (μM) divided by BRM IC50 (μM)) (BRM)
1 | C[C@H]1COCc2ccc(C(=O)NCc3cc4nc(N5CCCc6cc(N(C)C)cnc65)ccc4cn3)cc2S1(=O)=O [Compound 650] | 12.7 | 9.04 | 115 |  |  |  | 
2 | CC1CN(c2ccc3cnc(CNC(=O)c4ccc5c(c4)S(=O)(=O)CCOC5)cc3n2)c2ncccc2N1C (stereo not drawn) [Compound 649] | 126 | 5.93 | 750 |  |  |  | 
3 | COC[C@H]1CCc2ccc(-c3ccc4cnc(CNC(=O)c5ccc6c(c5)S(=O)(=O)CCOC6)cc4n3)nc2N1C [Compound 477] | 45.2 | 6.50 | 293 |  |  |  | 
4 | COc1cc(F)cc2c1CCCN2c1ccc2cnc(CNC(=O)c3ccc4c(c3)S(=O)(=O)CCOC4)cc2n1 [Compound 750] |  |  |  | 4 | 4.62 | 18.3 | 
5 | O=C(NCc1cc2nc(-c3cccc(CC(F)F)n3)ccc2cn1)c1ccc2c(c1)S(=O)(=O)CCOC2 [Compound 205] |  |  |  | 90.3 |  | 1480 | 16.45
6 | CO[C@@H](C)CN(C)c1cccc(-c2ccc3cnc(CNC(=O)c4ccc5c(c4)S(=O)(=O)CCOC5)cc3n2)n1 [Compound 64] |  |  |  | 17.5 |  | 340 | 19.39
7 | O=C(NCc1cc2nc(N3CCCc4ccc(OC5COC5)cc43)ccc2cn1)c1ccc2c(c1)S(=O)(=O)CCOC2 [Compound 692] | 6 | 14.09 | 84.9 |  |  |  | 
8 | O=C(NCc1cc2nc(N3CCCc4cc(F)cnc43)ccc2cn1)c1ccc2c(c1)S(=O)(=O)CCOC2 [Compound 591] | 22 | 10.98 | 242 |  |  |  | 
9 | C[C@@H]1CN(c2cccc(-c3ccc4cnc(CNC(=O)c5cc(Cl)c6c(c5)S(=O)(=O)[C@@H](C)COC6)cc4n3)n2)C[C@H](C)O1 [Compound 431] | 16.1 | 9.43 | 152 |  |  |  | 
10 | O=C(NCc1cc2nc(N3CCN(C4CC4)c4cccnc43)ccc2cn1)c1ccc2c(c1)S(=O)(=O)CCOC2 [Compound 686] | 14.3 | 13.91 | 199 |  |  |  | 
11 | CC1(c2cnc3c(c2)OCCN3c2ccc3cnc(CNC(=O)c4ccc5c(c4)S(=O)(=O)CCOC5)cc3n2)CC1 [Compound 712] |  |  |  | 8.6 | 11.90 | 102 | 
12 | O=C(NCc1cc2nc(N3CCCc4ccc(OCC5CCO5)cc43)ccc2cn1)c1ccc2c(c1)S(=O)(=O)CCOC2 (stereo not drawn) [Compound 735] |  |  |  | 8.2 | 13.49 | 110 | 
13 | C[C@@H]1CN(c2cccc(-c3ccc4cnc(CNC(=O)c5ccc6c(c5)S(=O)(=O)CC[C@@H](C(F)F)O6)cc4n3)n2)C[C@H](C)O1 [Compound 581] | 155 | 15.23 | 2370 |  |  |  | 
14 | CCO[C@H]1CCOc2c(-c3ccc4cnc(CNC(=O)c5ccc6c(c5)S(=O)(=O)CCOC6)cc4n3)cccc21 [Compound 66] |  |  |  | 211 |  | 1640 | 7.78
15 | O=C(NCc1cc2nc(N3CCOc4c(F)cc(C5CC5)nc43)ccc2cn1)c1ccc2c(c1)S(=O)(=O)CCOC2 [Compound 804] |  |  |  | 15.8 | 40.93 | 646 | 
16 | CC1CN(c2cccc(-c3ccc4cnc(CNC(=O)c5cnc6c(c5)S(=O)(=O)C(C)CC6)cc4n3)n2)CC(C)O1 (stereo not drawn) [Compound 597] | 41.3 | 11.61 | 479 |  |  |  | 
17 | O=C(NCc1cc2nc(-c3cn(C4COC4)nc3C3CC3)ccc2cn1)c1ccc2c(c1)S(=O)(=O)CCOC2 [Compound 194] |  |  |  | 219 |  | 2780 | 12.69
18 | O=C(NCc1cc2nc(-c3cccc(N4CCCOCC4)n3)ccc2cn1)c1ccc2c(c1)S(=O)(=O)CCOC2 [Compound 78] |  |  |  | 19 |  | 198 | 10.42

Row | Structure (SMILES) | IC50 (BRM; [1]) [nM] | Ratio* (BRM; ratio of BRG1 IC50 to BRM IC50) | IC50 (BRG-1; [1]) [nM] | IC50 (BRM; ADP-Glo ATPase assay) [nM] | Ratio* (BRM; ratio BRG1 IC50 / BRM IC50) | IC50 (BRG-1; ADP-Glo ATPase assay) [nM] | Ratio* (BRG1 IC50 (μM) divided by BRM IC50 (μM)) (BRM)
19 | CN(C)c1nccc2c1CCCN2c1ccc2cnc(CNC(=O)c3ccc4c(c3)S(=O)(=O)CCOC4)cc2n1 [Compound 836] |  |  |  | 105 | 6.21 | 651 | 
20 | O=C(NCc1cc2nc(N3CCOc4cc(C5CC5)ncc43)ccc2cn1)c1ccc2c(c1)S(=O)(=O)CCOC2 [Compound 739] |  |  |  | 12.7 | 17.37 | 221 | 
21 | Cn1ccc2c(-c3ccc4cnc(CNC(=O)c5ccc6c(c5)S(=O)(=O)CCOC6)cc4n3)ccnc21 [Compound 151] |  |  |  | 60.8 |  | 669 | 11.00
22 | O=C(NCc1cc2nc(N3CC(F)Cc4cccnc43)ccc2cn1)c1ccc2c(c1)S(=O)(=O)CCOC2 (stereo not drawn) [Compound 842] |  |  |  | 29.9 | 10.98 | 329 | 
23 | C[C@@H]1CN(c2cccc(-c3ccc4cnc(CNC(=O)c5ccc6c(c5)S(=O)(=O)CCOC6)cc4n3)c2)C[C@H](C)O1 [Compound 112] |  |  |  | 12.9 |  | 176 | 13.71
24 | C[C@@H]1CN(c2cccc(-c3ccc4cnc(CNC(=O)c5cccc(S(C)(=O)=O)c5Cl)cc4n3)n2)C[C@H](C)O1 [Compound 82] |  |  |  | 427 |  | 5000 | 11.71
25 | COCCN(C)c1cccc(-c2ccc3cnc(CNC(=O)c4cc(F)c5c(c4)S(=O)(=O)CCOC5)cc3n2)n1 [Compound 100] |  |  |  | 8 |  | 94.1 | 11.83
26 | Cc1cc2c(-c3ccc4cnc(CNC(=O)c5ccc(Cl)c(S(C)(=O)=O)c5)cc4n3)cccc2n1C [Compound 129] |  |  |  | 47.9 |  | 570 | 11.91
27 | CN1CCOc2c(-c3ccc4cnc(CNC(=O)c5ccc6c(c5)S(=O)(=O)CCOC6)cc4n3)ccnc21 [Compound 58] |  |  |  | 96.9 |  | 546 | 5.63
28 | CO[C@@H]1CCCN(c2cccc(-c3ccc4cnc(CNC(=O)c5ccc6c(c5)S(=O)(=O)CCOC6)cc4n3)n2)C1 [Compound 92] |  |  |  | 7.7 |  | 103 | 13.36
29 | CO[C@H](C)Cn1ccc2c(-c3ccc4cnc(CNC(=O)c5ccc6c(c5)S(=O)(=O)CCOC6)cc4n3)ccnc21 [Compound 448] | 263 | 13.96 | 3670 |  |  |  | 
30 | CO[C@H]1CCCN(c2cccc(-c3ccc4cnc(CNC(=O)c5ccc6c(c5)S(=O)(=O)CCOC6)cc4n3)n2)C1 [Compound 93] |  |  |  | 9.6 |  | 93.6 | 9.74
31 | C[C@@H]1CN(c2ccnc(-c3ccc4cnc(CNC(=O)c5ccc6c(c5)S(=O)(=O)[C@@H](C)COC6)cc4c3)n2)C[C@H](C)O1 [Compound 708] |  |  |  | 52.9 | 17.15 | 907 | 
32 | C[C@@H]1CN(c2cccc(-c3ccc4cnc(CNC(=O)c5cnc6c(c5)S(=O)(=O)[C@H](C)CCC6)cc4n3)n2)C[C@H](C)O1 [Compound 515] | 231 | 11.23 | 2600 |  |  |  | 
33 | O=C(NCc1cc2nc(-c3cccc(N4CC[C@@H]5C[C@@H]5C4)n3)ccc2cn1)c1ccc2c(c1)S(=O)(=O)CCOC2 [Compound 321] | 16 | 12.19 | 195 |  |  |  | 
34 | O=C(NCc1cc2nc(-c3cccc(N4CCC(F)(F)CC4)n3)ccc2cn1)c1ccc2c(c1)S(=O)(=O)CCOC2 [Compound 184] |  |  |  | 80.5 |  | 769 | 9.55
35 | C[C@H]1COCc2ccc(C(=O)NCc3cc4nc(N5CCOc6cc(Cl)cnc65)ccc4cn3)cc2S1(=O)=O [Compound 646] | 12.1 | 20.44 | 247 |  |  |  | 
36 | COc1cnc2c(c1)OCCN2c1ccc2cnc(CNC(=O)c3ccc4c(c3)S(=O)(=O)CCOC4)cc2n1 [Compound 619] | 5.6 | 11.17 | 62.7 |  |  |  | 
